In brackets after ≈: the same amount, converted by molar mass.

This assay concerns Staphylococcus epidermidis ATCC 35984. Nature of the assay: Minimum inhibitory concentration (MIC) assay, Staphylococcus epidermidis ATCC 35984. The class given is cell-based. To be noted: ATCC35984, aerobic culture 35+/-2°C, 16 to 20 hours, read with naked eyes. Here is the method:
On the day of the experiment, the compound in the flask was dissolved in 100% DMSO until the concentration of mother liquor was 0.4 mg/mL. If the mother liquor was not used on the same day, it was stored at −80° C. for future use.
The compound mother liquor and standard antibiotics were subjected to 2-fold gradient dilution with corresponding solvents on a 96-microwell plate (V-bottom) to obtain 100× working solutions (Well 1 to Well 7) in sequence. Among them, the concentrations of the compound were 400 μg/mL, 200 μg/mL, 100 μg/mL, 50 μg/mL, 25 μg/mL, 12.5 μg/mL, 6.25 μg/mL, and 3.125 μg/mL. 100% DMSO was used as growth control (Well 8). As such, the compound motherplate was obtained.
One day before the experiment, aerobic bacteria (Staphylococcus epidermidis) stored in a cryogenic tube at −80° C. were scribed on an MHA (Cation-adjusted Mueller-Hinton agar) plate. The aerobic bacteria were placed in a 35+/−2° C. incubator for 18-24 hours of aerobic cultivation.
On the day of the experiment, the plate was taken out, clones were picked from the plate and suspended in physiological saline. Then, the turbidity of the bacterial suspension (containing 1.0-2.0×10^8 CFU/mL) was adjusted to OD600=0.2 by a turbidity meter. Then, the adjusted bacterial suspension was diluted to an appropriate concentration with the assay culture medium: about 5×10^5 CFU/mL for aerobic bacteria, and about 1×10^6 CFU/mL for anaerobic bacteria. As such, the inoculating solution was obtained.
2 μl of 2-fold series dilution of 100× high-concentration working solution was transferred from a compound mother plate (prepared in step 1) to a round-bottom 96-well plate, and then 198 μL of bacterial inoculating solution (prepared in step 2) was added to each well to obtain an MIC assay plate. Therefore, the final assay concentrations of the compound were 4 μg/mL, 2 μg/mL, 1 μg/mL, 0.5 μg/mL, 0.25 μg/mL, 0.125 μg/mL, 0.06 μg/mL and 0.03 μg/mL. The total volume of each well on the assay plate was 200 μL: containing 1% DMSO, about 5×10^5 CFU/mL of aerobic bacteria and about 1×10^6 CFU/mL of anaerobic bacteria.
All assay plates for aerobic bacteria were aerobically cultured at 35+/−2° C. for 16 to 20 hours, and all assay plates for anaerobic bacteria were anaerobically cultured in an anaerobic incubator at 35+/−2° C. for 48 hours.

Compound `CN(C)c1cc2c(cn1)-c1ccc3c(=O)c(C(=O)O)cn(C4CC4)c3c1COC2` [Compound 6] displayed a minimal inhibitory concentration (MIC) of 0.06 µg/mL (≈ 0.153 µM).

A word on the MIC: it is the lowest concentration that inhibits growth of the organism. Read a high MIC as weaker potency.

The values above are taken from US20250042912A1, “NOVEL NON-FLUORINATED QUINOLONE COMPOUND AND USE THEREOF” (priority 2021, published 2025).
